Source: article PMC6896172, “Successful Targeting of the Warburg Effect in Prostate Cancer by Glucose-Conjugated 1,4-Naphthoquinones” (Cancers, 2019)

Assays:
PNT2 cells = experiment: MTT cytotoxicity assay in PNT2 cells; type: cell-based, human; conditions: Homo sapiens, PNT2, 48 h, 48 h of treatment
Excerpt: (§1) For general experiments human prostate cancer cell lines PC-3 and DU145 (docetaxel-resistant, androgen-independent, AR-FL(−), AR-V7(−)), 22Rv1 and VCaP (docetaxel-sensitive, androgen-independent, AR-FL(+), AR-V7(+), and LNCaP (docetaxel sensitive, androgen-dependent, AR-FL(+), AR-V7(−) were used. PC-3, 22Rv1, LNCaP cells as well as the human prostate non-cancer cells PNT2 and RWPE-1 were purchased from ATCC (Manassas, VA, USA). VCaP were purchased from ECACC (Salisbury, UK). The human fibroblast cell line MRC-9, the human embryonic kidney cell line HEK 293T, as well as the human umbilical vascular endothelial cell line HUVEC were kindly donated by Prof. Dr. Dr. med. Sonja Loges (University Medical Center Hamburg-Eppendorf, Hamburg, Germany). Cells were cultured according to the manufacturers’ instructions and were recently authenticated by a commercial service (Multiplexion, Heidelberg, Germany). Culture conditions are described in the Supplementary Information.
(§2) MTT (3-(4,5-dimethylthiazol-2-yl)-2,5-diphenyltetrazolium bromide) cytotoxicity assay was used for the evaluation of cytotoxicity of the compounds or their combinations. Experiments were performed as previously described. In brief, 6000 cells/well were seeded in 96-well plate, incubated overnight, and treated with the drugs in 100 µL/well of 10% FBS/RPMI media containing 2 g/L of D-(+)-glucose for 48 h, unless otherwise stated. For 2 h treatment the cells were treated with the drugs for 2 h in the culture media, then the media was exchanged to fresh drug-free media (100 µL/well) containing MTT reagent and the further steps were performed as previously described.
(§3) Table S4. Cytotoxic activity of the synthesized compounds. Cytotoxicity was determined in human prostate cancer PC-3 cells versus human prostate non-cancer
(§4) PNT2 cells after 48 h of treatment, as well as its ratio. IC50 was evaluated using MTT assay. SI–selectivity index. #–the IC50s in both cell lines were >100 µM.
(§5) Anisomycin was used as a reference substance.
(§6) No Formula IC50(PC-3) IC50(PNT2) SI […]

PC-3 cells = experiment: MTT cytotoxicity assay in PC-3 cells; type: cell-based, human; conditions: for IC50: Homo sapiens, PC-3, 48 h, 48 h of treatment; for SI [IC50(PNT2) / IC50(PC-3)]: ratio of IC50 in PNT2 cells to IC50 in PC-3 cells, 48 h
Excerpt: as §1, §2, §3, §4, §5, §6

22Rv1 cells [1] = experiment: Trypan blue exclusion viability assay; type: cell-based; conditions: Homo sapiens, 48 h of treatment
Method: The in vitro effect of the drugs on cell viability and proliferation was evaluated using trypan blue exclusion assay as described before with minor modifications. In brief, cells (0.2 × 10^6 cells/well) were seeded in 12-well plates, incubated overnight, the media was replaced with fresh media (1 mL/well) and treated with the drugs for 48 h. Cells were harvested by trypsination and the viability was measured using trypan blue staining and Beckman Coulter Vi-CELL (Beckman Coulter, Krefeld, Germany).

22Rv1 cells [2] = experiment: MTT cytotoxicity assay in 22Rv1 cells; type: cell-based, human; conditions: Homo sapiens
Method: (§7) Dr. Dr. med. Sonja Loges (University Medical Center Hamburg-Eppendorf, Hamburg, Germany). Cells were cultured according to the manufacturers’ instructions and were recently authenticated by a commercial service (Multiplexion, Heidelberg, Germany). Culture conditions are described in the Supplementary Information.
as §2

LNCaP cells = experiment: MTT cytotoxicity assay in LNCaP cells; type: cell-based; conditions: Homo sapiens, 48 h of treatment, cancer
Method: as §7, §2

MRC-9 cells = experiment: MTT cytotoxicity assay in MRC-9 cells; type: cell-based; conditions: Homo sapiens, MRC9, 48 h of treatment, non-cancer
Method: as §7, §2

RWPE-1 cells = experiment: MTT cytotoxicity assay in RWPE-1 cells; type: cell-based; conditions: Homo sapiens, 48 h of treatment, non-cancer
Method: as §7, §2

HEK293 cells = experiment: MTT cytotoxicity assay in HEK293 cells; type: cell-based; conditions: Homo sapiens, 48 h of treatment, non-cancer
Method: as §7, §2

VCaP cells = experiment: MTT cytotoxicity assay in VCaP cells; type: cell-based; conditions: Homo sapiens, 48 h of treatment, cancer
Method: as §7, §2

HUVEC cells = experiment: MTT cytotoxicity assay in HUVEC cells; type: cell-based; conditions: Homo sapiens, 48 h of treatment, non-cancer
Method: as §7, §2

DU145 cells = experiment: MTT cytotoxicity assay in DU145 cells; type: cell-based; conditions: Homo sapiens, DU-145, 48 h of treatment, cancer
Method: as §7, §2

22Rv1 cells [3] = experiment: Western blotting of treated cells; type: cell-based, human
Method: Preparation of protein extracts for western blotting was performed as described previously. In brief, for western blotting, 1 × 10^6 cells/well were seeded in Petri dishes (ø 6 cm TC Dish (Sarstedt, Numbrecht, Germany) in 5 mL/dish), incubated overnight and treated with drugs in 5 mL/dish for an indicated time. Cells were harvested using a cell scraper, pelleted, and resuspended in the lysis buffer containing protease and phosphatase inhibitors. Further sample preparation and western blotting were performed as previously described with slight modifications. Relative optical density of the detected bands was quantified with Quantity One 4.6 software (Bio-Rad, Hercules, CA, USA). The primary and secondary antibodies used are listed in the Supplementary Information.

22Rv1 cells [4] = experiment: Colony formation assay; type: cell-based, human; conditions: 22Rv1 cells treated with non-cytotoxic concentrations for 48 h
Method: Colony formation assays were performed as described before. In brief, cells were treated with the drugs for 48 h and then 100 alive cells were plated into each well of 6-well plates and incubated for 10 days. Surviving colonies were fixed, stained with Giemsa solution and counted.

| Compound | IC50 (PNT2 cells) [µM] | IC50 (PC-3 cells) [µM] | SI [IC50(PNT2) / IC50(PC-3)] (PC-3 cells) | other results |
| --- | --- | --- | --- | --- |
| O=C1C=C(OC[C@H]2OC(O)[C@H](O)[C@@H](O)[C@@H]2O)C(=O)c2c(O)c(Cl)c(Cl)c(O)c21 (stereo partly shown) [Compound 28] | > 100 | > 100 |  |  |
| O=C1C=C(OC[C@H]2OC(O)[C@H](O)[C@@H](O)[C@@H]2O)C(=O)c2c(O)cccc21 (stereo partly shown) [Compound 12] | 103 |  |  | IC50 (22Rv1 cells [1]): 14.6 µM; IC50 (22Rv1 cells [2]; 22Rv1, 48 h of treatment, cancer, read-out: IC50 (22Rv1)): 23.4 µM; IC50 (22Rv1 cells [2]; 22Rv1 cells, 2 h treatment, read-out: IC50 after 2 h of treatment): 94.9 µM; IC50 (LNCaP cells): 24 µM; IC50 (MRC-9 cells): 153 µM; IC50 (RWPE-1 cells): 48 µM; IC50 (HEK293 cells): 69.4 µM; IC50 (VCaP cells): 57.5 µM; IC50 (HUVEC cells): 45.7 µM; IC50 (DU145 cells): 37.1 µM; AR-FL and AR-V7 expression (22Rv1 cells [3]; 48 h treatment): downregulated both, AR full length (AR-FL) and AR-V7; LC3B-II and SQSTM1 levels (autophagy markers) (22Rv1 cells [3]; pre-cytotoxic and cytotoxic concentrations, 48 h): accumulation of both, LC3B-II and SQSTM1; cancer cell colony formation (22Rv1 cells [4]): suppress cancer cell colony formation |
| CC1(C)OC2OC3C(COC4=CC(=O)c5cccc(O)c5C4=O)OC(C)(C)OC3C2O1 (stereo not shown) [Compound 10] | 6.37 | 4.16 | 1.53 |  |
| CCc1c(O)c2c(c(O)c1OC)C(=O)C(OC[C@H]1OC(O)[C@H](O)[C@@H](O)[C@@H]1O)=CC2=O (stereo partly shown) [Compound 20] | 27.9 | 99 | 0.28 |  |
| CC1(C)OC2OC(C(O)COC3=CC(=O)c4ccccc4C3=O)C(O)C2O1 (stereo not shown) [Compound 3] | 31.1 | 24.2 | 1.28 |  |
| CC1(C)OC2OC(C(O)COC3=CC(=O)c4c(O)c(Cl)c(Cl)c(O)c4C3=O)C(O)C2O1 (stereo not shown) [Compound 27] | 4.47 | 3.47 | 1.29 |  |
| COC1=CC(=O)c2c(O)ccc(O)c2C1=O [Compound 13] | 9.84 | 5.38 | 1.83 |  |
| COC1=CC(=O)c2cccc(O)c2C1=O [Compound 9] | 4.05 | 2.85 | 1.42 |  |
| COC1=CC(=O)c2c(O)c(Cl)c(Cl)c(O)c2C1=O [Compound 25] | 1.22 | 2.3 | 0.53 |  |
| CC1(C)OC2OC3C(COC4=CC(=O)c5c(O)ccc(O)c5C4=O)OC(C)(C)OC3C2O1 (stereo not shown) [Compound 14] | 18.6 | 17.7 | 1.05 |  |
| CCc1c(O)c2c(c(O)c1OC)C(=O)C(OCC1OC(C)(C)OC3C1OC1OC(C)(C)OC13)=CC2=O (stereo not shown) [Compound 18] | 9.56 | 13.6 | 0.7 |  |
| CCc1c(O)c2c(c(O)c1OC)C(=O)C(OC)=CC2=O [Compound 17] | 12.5 | 21.8 | 0.57 |  |
| CCc1c(O)c2c(c(O)c1Cl)C(=O)C(OC[C@H]1OC(O)[C@H](O)[C@@H](O)[C@@H]1O)=CC2=O (stereo partly shown) [Compound 24] | > 100 | > 100 |  |  |
| CCc1c(O)c2c(c(O)c1Cl)C(=O)C(OCC(O)C1OC3OC(C)(C)OC3C1O)=CC2=O (stereo not shown) [Compound 23] | 5.21 | 7.35 | 0.71 |  |
| CC1(C)OC2OC(C(O)COC3=CC(=O)c4c(O)ccc(O)c4C3=O)C(O)C2O1 (stereo not shown) [Compound 15] | 5.65 | 5.46 | 1.03 |  |
| CC1(C)OC2OC3C(COC4=CC(=O)c5c(O)cccc5C4=O)OC(C)(C)OC3C2O1 (stereo not shown) [Compound 6] | 4.12 | 4.51 | 0.91 |  |
| O=C1C=C(OCC2OC(O)C(O)C(O)C2O)C(=O)c2ccccc21 (stereo not shown) [Compound 4] | > 100 | > 100 |  |  |
| COC1=CC(=O)c2c(O)cccc2C1=O [Compound 5] | 5.84 | 4.46 | 1.31 |  |
| CCc1c(O)c2c(c(O)c1Cl)C(=O)C(OCC1OC(C)(C)OC3C1OC1OC(C)(C)OC13)=CC2=O (stereo not shown) [Compound 22] | 2.98 | 4.24 | 0.7 |  |
| CC1(C)OC2OC3C(COC4=CC(=O)c5ccccc5C4=O)OC(C)(C)OC3C2O1 (stereo not shown) [Compound 2] | 16.2 | 13.1 | 1.24 |  |
| CCc1c(O)c2c(c(O)c1OC)C(=O)C(OCC(O)C1OC3OC(C)(C)OC3C1O)=CC2=O (stereo not shown) [Compound 19] | 41.7 | 27.9 | 1.49 |  |
| CCc1c(O)c2c(c(O)c1Cl)C(=O)C(OC)=CC2=O [Compound 21] | 27.4 | 31.6 | 0.87 |  |
| COC1=CC(=O)c2ccccc2C1=O [Compound 1] | 14.5 | 9.33 | 1.55 |  |
| CC1(C)OC2OC3C(COC4=CC(=O)c5c(O)c(Cl)c(Cl)c(O)c5C4=O)OC(C)(C)OC3C2O1 (stereo not shown) [Compound 26] | 2.07 | 2.75 | 0.75 |  |
| O=C1C=C(OCC2OC(O)C(O)C(O)C2O)C(=O)c2c(O)ccc(O)c21 (stereo not shown) [Compound 16] | > 100 | > 100 |  |  |
